PubChem BioAssay (NCI)
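48-hour exposure; five concentrations; linearly interpolated endpoints. TGI marks complete inhibition of growth.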

What was measured:
Test in all cases: inhibition of tumour cell growth, NCI panel, 48 h
[1] = test system: RXF 393 renal
[2] = test system: RPMI-8226 leukemia
[3] = test system: OVCAR-8 ovarian
[4] = test system: ACHN renal
[5] = test system: LOX IMVI melanoma
[6] = test system: UO-31 renal
[7] = test system: SNB-19 CNS
[8] = test system: LXFL 529 NSCLC
[9] = test system: M14 melanoma
[10] = test system: UACC-257 melanoma
[11] = test system: SK-MEL-5 melanoma
[12] = test system: NCI-H23 lung
[13] = test system: CCRF-CEM leukemia
[14] = test system: UACC-62 melanoma
[15] = test system: SF-268 CNS
[16] = test system: SN12C renal
[17] = test system: MALME-3M melanoma
[18] = test system: NCI-H460 lung
[19] = test system: DMS 114 small cell lung
[20] = test system: M19-MEL melanoma
[21] = test system: OVCAR-4 ovarian
[22] = test system: HCC-2998 colon
[23] = test system: K-562 leukemia
[24] = test system: SF-295 CNS
[25] = test system: SK-MEL-28 melanoma
[26] = test system: SR leukemia
[27] = test system: EKVX NSCLC
[28] = test system: TK-10 renal
[29] = test system: NCI-H522 lung
[30] = test system: A549 NSCLC
[31] = test system: HT29 colon
[32] = test system: SK-OV-3 ovarian
[33] = test system: COLO 205 colon
[34] = test system: MOLT-4 leukemia
[35] = test system: NCI-H226 lung
[36] = test system: KM12 colon
[37] = test system: DLD-1 colon
[38] = test system: A498 renal
[39] = test system: HCT-15 colon
[40] = test system: U251 CNS
[41] = test system: OVCAR-3 ovarian
[42] = test system: DMS 273 small cell lung
[43] = test system: SNB-75 CNS
[44] = test system: SF-539 CNS
[45] = test system: IGROV1 ovarian
[46] = test system: 786-0 renal
[47] = test system: HL-60(TB) leukemia
[48] = test system: HOP-62 NSCLC
[49] = test system: HOP-92 NSCLC
[50] = test system: SK-MEL-2 melanoma
[51] = test system: SNB-78 CNS
[52] = test system: SW-620 colon
[53] = test system: RXF-631 renal
[54] = test system: OVCAR-5 ovarian

Measured: TGI

CCOC(=O)C1Oc2ccc([N+](=O)[O-])c3c2C1(O)CCC3 (centres undefined)
> 100 µM: [1] | [2] | [3] | [4] | [5] | [6] | [7] | [8] | [9] | [10] | [11] | [12] | [13] | [14] | [15] | [16] | [17] | [18] | [19] | [20] | [21] | [22] | [23] | [24] | [25] | [26] | [27] | [28] | [29] | [30] | [31] | [32] | [33] | [34] | [35] | [36] | [37] | [38] | [39] | [40] | [41] | [42] | [43] | [44] | [45] | [46] | [47] | [48] | [49] | [50] | [51] | [52] | [53] | [54]
